# Key:
# TRPV1 receptors = target: T1, TRPV1 receptors (Mus musculus, UniProt Q704Y3); test: Mouse cornea irritation test (capsaicin-induced eye rubbing); type: in vivo; conditions: compound 500 μM, 2 μl local application to the cornea 10 minutes before 2 μl of 160 μM capsaicin, rubbings counted for 2 minutes
# T1 construct: from tissue; host or cells: cornea of the living mouse (C-fibre innervation)
# Procedure: Mouse Cornea Irritation Test
# The irritant nature of capsaicin is easily appreciated at the level of the cornea since this organ is one of the most innervated with the C-fibres. In this context, according to preliminary experiments, the application of a very small amount of capsaicin (2 μl at a concentration of 160 μM) to the surface of the cornea of an animal leads to a certain number of stereotypical behaviors associated with irritation, which are easily listed. These include: blinking, rubbing of the instilled eye by the ipsilateral forepaw, rubbing of the face with both forepaws, scratching of the ipsilateral face by the hindpaw. […] Moreover, its appearance is also normal. […] It can be concluded that the duration of action of capsaicin at these doses is less than 2 minutes.
# SUMMARY OF THE METHODOLOGY
# The principle of the series of tests is to determine whether the compounds of the invention can influence the behavioral response induced by a specified amount of capsaicin. The capsaicin is initially diluted to 25 mM in DMSO and diluted, for final use, in physiological serum with Tween 80 at 10%. It appears, from control studies, that in these conditions the solvent has no effect.
# In practice, the test product, prepared at 25 mM in DMSO and diluted for final use in physiological serum with 10% of Tween 80 at the strongest concentration of 500 μM, is administered by local application to the surface of the cornea at a volume of 2 μl, 10 minutes before application of the capsaicin. The animal receives an ocular instillation of 2 μl of a 160 μM capsaicin solution prepared as stated above. For an observation period of 2 minutes following instillation, the number of times the instilled eye is rubbed by the ipsilateral forepaw is counted for each animal.
# For a given group, the percentage protection is calculated as follows: P=100−((average number of scratchings of the group treated with the compound/average number of scratchings of the group treated with the solvent)×100)
# This percentage protection is averaged for each group of animals (n=number of animals tested with the compound of the invention).
# TRPV1 receptor = target: T2, TRPV1 receptor (Rattus norvegicus, UniProt O35433); test: Test of inhibition of the current induced by capsaicin on the rat DRG (whole-cell patch-clamp); type: cell-based; conditions: inhibition of the capsaicin control response, primary culture of neonate rat DRG neurons
# T2 construct: The neurons of the DRG express the TRPV1 receptor naturally; endogenous in cells; host or cells: primary culture of neonatal rat dorsal root ganglion neurons
# T2 sequence (O35433 whole entry): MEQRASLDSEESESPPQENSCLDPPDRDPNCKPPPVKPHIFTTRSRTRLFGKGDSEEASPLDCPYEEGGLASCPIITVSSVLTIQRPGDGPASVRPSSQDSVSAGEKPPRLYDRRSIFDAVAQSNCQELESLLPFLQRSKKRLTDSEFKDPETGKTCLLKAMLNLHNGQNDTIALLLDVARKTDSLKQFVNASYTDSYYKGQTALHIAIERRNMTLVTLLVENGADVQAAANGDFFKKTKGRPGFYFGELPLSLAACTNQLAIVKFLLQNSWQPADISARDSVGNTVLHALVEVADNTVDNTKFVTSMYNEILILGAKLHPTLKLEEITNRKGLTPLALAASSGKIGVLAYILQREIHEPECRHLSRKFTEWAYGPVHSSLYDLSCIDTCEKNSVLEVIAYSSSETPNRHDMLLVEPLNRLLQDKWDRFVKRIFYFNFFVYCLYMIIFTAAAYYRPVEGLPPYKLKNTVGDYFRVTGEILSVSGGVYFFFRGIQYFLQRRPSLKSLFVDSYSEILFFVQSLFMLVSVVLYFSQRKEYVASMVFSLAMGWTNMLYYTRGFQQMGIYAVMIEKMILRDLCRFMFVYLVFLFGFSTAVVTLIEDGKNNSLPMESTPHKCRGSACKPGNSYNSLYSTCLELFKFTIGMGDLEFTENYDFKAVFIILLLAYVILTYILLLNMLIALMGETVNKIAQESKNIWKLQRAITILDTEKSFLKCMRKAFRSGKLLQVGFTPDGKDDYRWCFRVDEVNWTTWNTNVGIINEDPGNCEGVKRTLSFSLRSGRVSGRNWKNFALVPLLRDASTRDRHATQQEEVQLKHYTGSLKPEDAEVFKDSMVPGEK
# Procedure: Test of Inhibition of the Current Induced by Capsaicin on the Rat DRG
# Primary Culture of Rat Dorsal Root Ganglion (DRG) Cells:
# The neurons of the DRG express the TRPV1 receptor naturally.
# Primary cultures of DRG of neonate rats are prepared from 1-day-old rats. Briefly, after dissection, the ganglia are trypsinized and the cells are dissociated mechanically by careful trituration. The cells are resuspended in Eagle's basic culture medium containing 10% of fetal calf serum, 25 mM KCl, 2 mM glutamine, 100 μg/ml gentamicin and 50 ng/ml of NGF, then deposited on glass slides covered with laminin (0.25×10^6 cells per slide), which are then placed in Corning 12-well plates. The cells are incubated at 37° C. in a humidified atmosphere containing 5% CO2 and 95% air. Cytosine β-D-arabinoside (1 μM) is added 48 h after culture set-up, to prevent the development of non-neuronal cells. The slides are transferred to the test chambers for patch-clamp investigations after 7-10 days in culture.
# The measuring chambers (volume 800 μl) containing the cellular preparation are placed on the stage of an inverted microscope (Olympus IMT2) fitted with Hoffman optics (Modulation Contrast, New York) and are observed at magnification of 400×. The chambers are continually perfused by gravity (2.5 ml/min) by means of a solution distributor accepting 8 inlets and whose single outlet, comprising a polyethylene tube (inside diameter 500 μm) is positioned at less than 3 mm from the cell under investigation. […] The total currents (membrane potential fixed at −60 mV) were recorded with an Axopatch 1D amplifier (Axon Instruments, Foster City, Calif.), connected to a PC controlled by Pclamp8 software (Axon Instrument). The current traces are recorded on paper and simultaneously digitized (sampling frequency […]) and saved to the hard disk of the PC.
# The application of a micromolar solution of capsaicin induces a cationic input current on the DRG cells (voltage fixed at −70 mV). […] The results are expressed as percentage inhibition of the capsaicin control response.
# T1 sequence (Q704Y3 whole entry): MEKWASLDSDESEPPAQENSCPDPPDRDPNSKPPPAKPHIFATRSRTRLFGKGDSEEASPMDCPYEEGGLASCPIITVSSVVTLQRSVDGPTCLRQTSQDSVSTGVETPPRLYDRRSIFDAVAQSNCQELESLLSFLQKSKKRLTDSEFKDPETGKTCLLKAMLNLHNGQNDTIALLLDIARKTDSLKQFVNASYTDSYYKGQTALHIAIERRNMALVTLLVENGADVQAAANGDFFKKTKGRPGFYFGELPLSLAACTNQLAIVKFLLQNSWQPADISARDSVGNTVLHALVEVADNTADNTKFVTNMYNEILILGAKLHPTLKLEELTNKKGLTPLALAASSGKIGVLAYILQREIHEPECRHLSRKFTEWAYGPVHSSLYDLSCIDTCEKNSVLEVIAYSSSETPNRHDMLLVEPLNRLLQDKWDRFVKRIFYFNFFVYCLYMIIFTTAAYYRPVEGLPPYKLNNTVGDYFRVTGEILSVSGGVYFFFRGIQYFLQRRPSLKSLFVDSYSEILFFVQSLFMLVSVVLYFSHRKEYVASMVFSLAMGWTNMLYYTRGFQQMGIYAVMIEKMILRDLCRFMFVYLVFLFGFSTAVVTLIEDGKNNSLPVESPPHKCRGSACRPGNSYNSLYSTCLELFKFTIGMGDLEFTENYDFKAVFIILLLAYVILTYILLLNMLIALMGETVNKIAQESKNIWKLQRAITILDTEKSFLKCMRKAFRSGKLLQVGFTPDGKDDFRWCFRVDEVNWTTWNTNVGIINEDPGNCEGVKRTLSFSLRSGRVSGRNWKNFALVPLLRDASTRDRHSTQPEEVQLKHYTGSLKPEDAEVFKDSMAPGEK
Structure (SMILES),% P 500 μM (percentage protection) (TRPV1 receptors),other results
"CNc1ccc(NC(=O)c2cc3cc(C(F)(F)F)cnc3n2Cc2cccc(F)c2)cn1 [Compound 1, N-[(6-Methylamino)pyridin-3-yl]-5-trifluoromethyl-1-(3-fluorobenzyl)-1H-pyrrolo[2,3-b]pyridine-2-carboxamide]",51%,
"CN(C)c1ncc(NC(=O)c2cc3cc(C(F)(F)F)cnc3n2Cc2cccc(F)c2)cc1C(F)(F)F.Cl [Compound 4, N-(6-N,N-Dimethylamino-5-trifluoromethyl-pyridin-3-yl)-5-trifluoromethyl-1-(3-fluorobenzyl)-1H-pyrrolo[2,3-b]pyridine-2-carboxamide hydrochloride (1:1)]",,Percentage inhibition in patch DRG (TRPV1 receptor; compound at 1 nM): 98% (1 nM)
"O=C(Nc1ccc(N2CCCC2)nc1)c1cc2cc(C(F)(F)F)cnc2n1Cc1cccc(F)c1 [Compound 6, N-[6-(Pyrrolidin-1-yl)pyridin-3-yl]-5-trifluoromethyl-1-(3-fluorobenzyl)-1H-pyrrolo[2,3-b]pyridine-2-carboxamide]",30%,"inhibition at 0.001 µM (TRPV1 receptor; DRG neuron, compound at 1 nM, read-out: Percentage inhibition in patch DRG): 71%"
"Cc1cc(N(C)C)ncc1NC(=O)c1cc2cc(C(F)(F)F)cnc2n1Cc1cccc(F)c1.Cl [Compound 3, N-(6-N,N-Dimethylamino-4-methyl-pyridin-3-yl)-5-trifluoromethyl-1-(3-fluorobenzyl)-1H-pyrrolo[2,3-b]pyridine-2-carboxamide hydrochloride (1:1)]",34%,
"O=C(Nc1ccc(N2CCCC2)nc1)c1cc2cc(C(F)(F)F)cnc2n1Cc1ccncc1 [Compound 9, N-[6-(Pyrrolidin-1-yl)pyridin-3-yl]-5-trifluoromethyl-1-[(4-pyridyl)methyl]-1H-pyrrolo[2,3-b]pyridine-2-carboxamide]",43%,
"O=C(Nc1ccc(N2CCC2)nc1)c1cc2cc(C(F)(F)F)cnc2n1Cc1cccc(F)c1 [Compound 15, N-[6-(Azetidin-1-yl)pyridin-3-yl]-5-trifluoromethyl-1-(3-fluorobenzyl)-1H-pyrrolo[2,3-b]pyridine-2-carboxamide]",,"inhibition at 0.01 µM (TRPV1 receptor; DRG neuron, compound at 10 nM, read-out: Percentage inhibition in patch DRG): 100%"
"O=C(Nc1ccc(N2CCC(F)(F)C2)nc1)c1cc2cc(C(F)(F)F)cnc2n1Cc1cccc(F)c1 [Compound 12, N-[6-(3,3-difluoropyrrolidin-1-yl)pyridin-3-yl]-5-trifluoromethyl-1-(3-fluorobenzyl)-1H-pyrrolo[2,3-b]pyridine-2-carboxamide]",83%,

# — patent publication US8716273B2, “N-(amino-heteroaryl)-1H-pyrrolopyridine-2-carboxamides derivatives preparation thereof and their use in therapy” (SANOFI, priority 2006, dated 2014)
